Laboratory results from patent EP4635945A1, “CRYSTAL FORM OF PROXIMOD, PREPARATION METHOD THEREFOR, AND USE THEREOF” (Jiankuan (Suzhou) Biotechnology Co., Ltd, priority 2022, dated 2024).
“Also recorded” adds a separate entry of the source.

Columns and labels:
Type in all cases: physicochemical
[1] = Dynamic solubility in biorelevant media and buffers at 37 °C (HPLC, XRPD of solids); settings: for solubility at 1 h / solubility at 4 h / solubility at 24 h / solubility at 2 h: thermodynamic from solid
Method: (§1) After 1 hour/2 hours/4 hours/24 hours, the saturated solutions were obtained by filtration. The actual concentrations of the samples in the saturated solutions were determined by high-performance liquid chromatography (HPLC) (the filtered solutions were diluted as needed), and the crystal forms of the solids before and after the experiment were characterized by XRPD to check whether phase changes occurred.

[2] = Equilibrium solubility in organic solvents at room temperature (HPLC, XRPD of solids); settings: organic solvent or mixture, thermodynamic from solid, 24 hours of equilibrium
Method: as §1, with “24 hours of equilibrium,” for “1 hour/2 hours/4 hours/24 hours,”, “contents” for “actual concentrations”

[3] = Intrinsic dissolution of tableted crystal forms; settings: hydrochloride
[4] = Hygroscopicity by dynamic vapor sorption (DVS)
Text: In the examples of the present application, the instrument used for the X-ray powder diffraction test is the D2 Phaser produced by Bruker. The instrument used for the differential scanning calorimetry test is the differential scanning calorimeter DSC 250 produced by TA Instruments. The instrument used for the thermogravimetric analysis is the thermogravimetric analyzer TGA 55 produced by TA Instruments. The instrument used for the FT-IR test is the Fourier infrared spectrometer ID1-summit produced by Thermo. The instrument used for the dynamic vapor sorption test is the DVS Intrinsic produced by Surface Measurement Systems (SMS). The instrument used for the microscopy is the microscope NJF-120A produced by Suzhou Nanguang Electronic Technology Co., Ltd.

[5] = Fluidity: angle of repose, bulk and tap density, Hausner ratio; settings: hydrochloride
Method: This experiment was performed by using a tap density tester according to the fixed-volume method. The specific operations are as follows: The weighed powder, with a volume of 50 mL, was loaded into a graduated cylinder, and the graduated cylinder was secured onto a support. The graduated cylinder was set to be vibrated at 55 ± 5 vibrations per minute for 6-8 minutes. The volume change of the powder was measured in a measuring cup. The ratio of the weight of the powder to the volume (50 mL) before tapping is the bulk density of the powder, and the ratio of the weight of the powder to the volume after tapping is the tapped density of the powder.
The Hausner ratio and the compression degree were converted in the following methods. Hausner ratio = tap density/bulk density [formula] Compression degree = (tapdensity−bulkdensity)/tap density [formula]
This experiment was performed by a pouring method, and the angles of repose of the drug substances of the two crystal forms were measured in combination with a residual cone method to analyze their fluidities. The specific operations are as follows: The powder was poured onto the center of a disk with a specific diameter, and when the material on the slope of the powder pile began to flow freely out along the periphery of the disk, the pouring of the powder was stopped. The height (h) of the cone was measured, and the angle of repose was calculated in combination with the diameter (2r) of the disk, that is, tanQ = h/r.

[6] = Adhesiveness: PE bag adhesive rate; settings: flipped at 5 rpm, 10 minutes in each direction; hydrochloride
Method: The bags were sealed, flipped at a rotational speed of 5 rpm for 10 minutes, and continued to be flipped in a different flipping direction at a fixed rotational speed for 10 minutes. The materials were poured out of the bags, and the materials remaining in the bags were accurately weighed to calculate the adhesive rate.
The adhesive rate was calculated according to the following formula: Adhesive rate = (initialmaterialweight-remainingmaterialweight)/contact surface area. [formula]

[7] = Compressibility: tableting, hardness and tensile strength; settings: die with a diameter of 6 mm
Method: In this experiment, a die with a diameter of 6 mm was used. The drug substance and the drug substance + excipient were tableted under the same pressure, respectively. After the elasticity of the prepared tablets was restored, the radial crushing force F, diameter D, and thickness L of the tablets were measured. The tensile strength of the tablets was calculated according to the following formula: Ts = 2F/IIDL.

[8] = FaSSIF (pH of 8.0), 1 hour, hydrochloride
[9] = FaSSIF (pH of 8.0), 2 hours, hydrochloride
[10] = pH = 4.0 acetic acid-sodium acetate buffer, 2 hours, hydrochloride
[11] = pH = 6.8 phosphate buffer, 4 hours
[12] = pH = 6.8 phosphate buffer, 24 hours

CCCc1nc(-c2ccc(-c3ccc(CCC(N)(CO)CO)cc3)cc2)co1.Cl [Crystal form A, 2-amino-2-{2-(4'-(2-propyloxazol-4-yl)-[1,1'-biphenyl]-4-yl)ethyl}-1,3-propanediol hydrochloride]
Crystal form of the solid [1, 8]: A + Free alkali | Solubility [1, 8]: 22 µg/mL | Crystal form of the solid [1, 9]: A + Free alkali | Solubility [1, 9]: 24 µg/mL | Crystal form of the solid ([1]; FaSSIF (pH of 8.0), 4 hours): Free alkali | Solubility ([1]; FaSSIF (pH of 8.0), 4 hours, hydrochloride): 18 µg/mL | Crystal form of the solid ([1]; FaSSIF (pH of 8.0), 24 hours): Free alkali | Solubility ([1]; FaSSIF (pH of 8.0), 24 hours, hydrochloride): 16 µg/mL | Solubility ([1]; FeSSIF (pH of 5.0), 4 hours, hydrochloride): 340 µg/mL | Crystal form of the solid ([1]; FeSSIF (pH of 5.0), 24 hours): no crystal form change | Crystal form of the solid ([1]; SGF (pH of 1.0), 1 hour): A + F | Crystal form of the solid ([1]; SGF (pH of 1.0), 2 hours): A + F | Crystal form of the solid ([1]; SGF (pH of 1.0), 4 hours): A + F | Crystal form of the solid ([1]; SGF (pH of 1.0), 24 hours): A + F | Crystal form of the solid ([1]; Water, 1 hour, hydrochloride): A + F | Crystal form of the solid ([1]; Water, 2 hours, hydrochloride): A + F | Crystal form of the solid ([1]; Water, 4 hours, hydrochloride): A + F | Solubility ([1]; Water, 4 hours, hydrochloride): 990 µg/mL | Crystal form of the solid ([1]; Water, 24 hours, hydrochloride): A + F | solubility at 1 h ([1]; acetic acid-sodium acetate buffer, pH 4, aqueous buffer, pH = 4.0 acetic acid-sodium acetate buffer, 1 hour): 1690 µg/mL | solubility at 4 h ([1]; acetic acid-sodium acetate buffer, pH 4, aqueous buffer, pH = 4.0 acetic acid-sodium acetate buffer, 4 hours): 1360 µg/mL | solubility at 24 h ([1]; acetic acid-sodium acetate buffer, pH 4, aqueous buffer, pH = 4.0 acetic acid-sodium acetate buffer, 24 hours): 4110 µg/mL | solubility at 1 h ([1]; fed state simulated intestinal fluid (FeSSIF), pH 5, fessif, FeSSIF (pH of 5.0), 1 hour): 1930 µg/mL | solubility at 2 h ([1]; fed state simulated intestinal fluid (FeSSIF), pH 5, fessif, FeSSIF (pH of 5.0), 2 hours): 2110 µg/mL | solubility at 24 h ([1]; fed state simulated intestinal fluid (FeSSIF), pH 5, fessif, FeSSIF (pH of 5.0), 24 hours): 3720 µg/mL | solubility at 1 h ([1]; hydrochloric acid aqueous solution, pH 1, simulated gastric fluid, pH = 1.0 hydrochloric acid aqueous solution, 1 hour): 280 µg/mL | solubility at 2 h ([1]; hydrochloric acid aqueous solution, pH 1, simulated gastric fluid, pH = 1.0 hydrochloric acid aqueous solution, 2 hours): 280 µg/mL | solubility at 4 h ([1]; hydrochloric acid aqueous solution, pH 1, simulated gastric fluid, pH = 1.0 hydrochloric acid aqueous solution, 4 hours): 330 µg/mL | solubility at 24 h ([1]; hydrochloric acid aqueous solution, pH 1, simulated gastric fluid, pH = 1.0 hydrochloric acid aqueous solution, 24 hours): 400 µg/mL | Crystal form of the solid ([1]; pH = 1.0 hydrochloric acid aqueous solution, 1 hour): A + F | Crystal form of the solid ([1]; pH = 1.0 hydrochloric acid aqueous solution, 2 hours): A + F | Crystal form of the solid ([1]; pH = 1.0 hydrochloric acid aqueous solution, 4 hours): A + F | Crystal form of the solid ([1]; pH = 1.0 hydrochloric acid aqueous solution, 24 hours): A + F | Crystal form of the solid ([1]; pH = 4.0 acetic acid-sodium acetate buffer, 1 hour, hydrochloride): A + F | Crystal form of the solid [1, 10]: A + F | Solubility [1, 10]: 1130 µg/mL | Crystal form of the solid ([1]; pH = 4.0 acetic acid-sodium acetate buffer, 4 hours, hydrochloride): A + F | Crystal form of the solid ([1]; pH = 4.0 acetic acid-sodium acetate buffer, 24 hours, hydrochloride): A + F | Crystal form of the solid ([1]; pH = 6.8 phosphate buffer, 1 hour): Free alkali | Crystal form of the solid ([1]; pH = 6.8 phosphate buffer, 2 hours): Free alkali | Solubility ([1]; pH = 6.8 phosphate buffer, 2 hours, hydrochloride): Not detected | Crystal form of the solid [1, 11]: Free alkali | Solubility [1, 11]: Not detected | Crystal form of the solid [1, 12]: Free alkali | Solubility [1, 12]: Not detected | solubility at 1 h ([1]; phosphate buffer, pH 6.8, aqueous buffer, pH = 6.8 phosphate buffer, 1 hour): 0.16 µg/mL | solubility at 1 h ([1]; simulated gastric fluid (SGF), pH 1, simulated gastric fluid, SGF (pH of 1.0), 1 hour): 260 µg/mL | solubility at 2 h ([1]; simulated gastric fluid (SGF), pH 1, simulated gastric fluid, SGF (pH of 1.0), 2 hours): 250 µg/mL | solubility at 4 h ([1]; simulated gastric fluid (SGF), pH 1, simulated gastric fluid, SGF (pH of 1.0), 4 hours): 280 µg/mL | solubility at 24 h ([1]; simulated gastric fluid (SGF), pH 1, simulated gastric fluid, SGF (pH of 1.0), 24 hours): 460 µg/mL | solubility at 1 h ([1]; water, 1 hour): 2020 µg/mL | solubility at 2 h ([1]; water, 2 hours): 2570 µg/mL | solubility at 24 h ([1]; water, 24 hours): 3290 µg/mL | solubility at 24 h ([2]; acetone): 43 µg/mL | solubility at 24 h ([2]; ethanol): 9990 µg/mL | solubility at 24 h ([2]; ethyl acetate): 11 µg/mL | Dissolution amount ([3]; Medium Water, 5 min): 0.0005 mg/mL | Dissolution amount ([3]; Medium Water, 10 min): 0.0010 mg/mL | Dissolution amount ([3]; Medium Water, 30 min): 0.0011 mg/mL | Dissolution amount ([3]; Medium Water, 45 min): 0.0003 mg/mL | Dissolution amount ([3]; Medium Water, 60 min): 0.0010 mg/mL | Dissolution amount ([3]; Medium Water, 90 min): 0.0012 mg/mL | Dissolution amount ([3]; Medium pH = 4.0, flow rate 4 mL/minute, 5 min): 0.0346 mg/mL | Dissolution amount ([3]; Medium pH = 4.0, flow rate 4 mL/minute, 10 min): 0.0462 mg/mL | Dissolution amount ([3]; Medium pH = 4.0, flow rate 4 mL/minute, 30 min): 0.0481 mg/mL | Dissolution amount ([3]; Medium pH = 4.0, flow rate 4 mL/minute, 45 min): 0.0477 mg/mL | Dissolution amount ([3]; Medium pH = 4.0, flow rate 4 mL/minute, 60 min): 0.0487 mg/mL | Dissolution amount ([3]; Medium pH = 4.0, flow rate 4 mL/minute, 90 min): 0.0479 mg/mL | Weight gain by water absorption (DVS) ([4]; 24.4 °C/90% RH): 0.06% | Hygroscopicity description ([4]; DVS, 90% RH, hydrochloride): no or almost no hygroscopicity; also recorded: slightly hygroscopic | Weight gain by water absorption (DVS) ([4]; vapor sorption at 25 °C/90% RH): 0.26% | Compression degree ([5]; (tap density − bulk density)/tap density): 33.0% 33.0% | Bulk density ([5]; fixed-volume method, 50 mL): 0.34 g/mL | Tap density ([5]; fixed-volume method, after tapping): 0.50 g/mL | Angle of repose ([5]; pouring method with residual cone method): 56.25 ° | Hausner ratio ([5]; tap density/bulk density): 1.5 | PE bag adhesive rate [6]: 0.0007 g/cm^2 | Tensile strength Ts ([7]; Ts = 2F/IIDL, hydrochloride): 0.17 | Hardness ([7]; same pressure, hydrochloride): 5 N | Experimental phenomena ([7]; tableting): Severe punch sticking
